This test has as its target T1, GLP-1R (Homo sapiens, UniProt P43220).
T1 construct: host or cells: CHO cells
The experiment in a line: GLP-1R activation cAMP assay (Assay 1 or Assay 2). Format: cell-based. The settings on record: cAMP increase in CHO cells stably expressing GLP-1R; compounds run on one of the two cAMP assays. As to the method:
GLP-1R ACTIVATION—cAMP Assay 1
GLP-1R activation by compounds of the present disclosure was quantified by measuring cAMP increase in CHO cells stably expressing GLP-1R (MultiSpan product #C1267-1a). The cells were harvested and plated in growth medium (DMEM/F-12 (Corning product #10-090-CV) supplemented with 10% FBS (HyClone product #SH30071-03), penicillin/streptomycin (Corning product #30-002CI) and 10 μg/ml puromycin (Gibco product #A11138-03)) at 1,000 cells/well in a 384-well plate (Greiner product #781080). The cells were then incubated overnight at 37° C., 5% CO2. The next day, the medium was removed and the cells were washed with DPBS (Corning product #21-031-CM) before adding the assay medium (HBSS, Corning product #21-023-CV) with 20 mM Hepes (Gibco product #15630-080) and 0.1% BSA (Rockland Immunochemicals product #BSA-1000)). Following the medium change, the cells were incubated for 1 hour at 37° C., 5% CO2. The tested GLP-1 compound was added to the cells in a 10-point dose response followed by a 30-minute incubation at 37° C., 5% CO2. cAMP concentration increase was then detected using Cisbio's cAMP Gs Dynamic Kit (product #62AM4PEC) according to the manufacturer's protocol. The response was plotted against the log of the agonist concentration and fitted to a sigmoidal equation to determine the EC50.
GLP-1R ACTIVATION—cAMP Assay 2
GLP-1R activation by small molecule agonists was quantified by measuring cAMP increase in CHO cells stably expressing GLP-1R (MultiSpan product #C1267-1a). 50 nL of agonists were pre-spotted in a 10-point dose response onto 384-well plate (Corning product #CL3826) using the Labcyte Echo System.
T1 sequence (P43220 24-463): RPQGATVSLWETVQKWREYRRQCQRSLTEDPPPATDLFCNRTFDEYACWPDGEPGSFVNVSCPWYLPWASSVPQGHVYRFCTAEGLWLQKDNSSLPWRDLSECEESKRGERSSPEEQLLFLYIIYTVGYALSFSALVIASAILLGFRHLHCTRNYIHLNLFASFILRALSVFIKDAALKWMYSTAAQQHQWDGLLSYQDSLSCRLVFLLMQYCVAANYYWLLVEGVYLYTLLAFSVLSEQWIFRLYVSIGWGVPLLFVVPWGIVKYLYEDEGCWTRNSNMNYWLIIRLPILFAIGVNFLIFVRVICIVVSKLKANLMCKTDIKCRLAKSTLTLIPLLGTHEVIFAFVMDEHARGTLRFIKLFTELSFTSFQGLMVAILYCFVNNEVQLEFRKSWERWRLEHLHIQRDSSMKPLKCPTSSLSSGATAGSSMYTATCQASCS
With `Cn1cc(-n2ccc(COc3cccc(-c4cc(F)c(Cc5nc6ccc(C(=O)O)cc6n5C[C@@H]5CCO5)cc4F)n3)n2)cn1` [Example 82, (S)-2-(2,5-difluoro-4-(6-((1′-methyl-1′H-[1,4′-bipyrazol]-3-yl)methoxy)pyridin-2-yl)benzyl)-1-(oxetan-2-ylmethyl)-1H-benzo[d]imidazole-6-carboxylic acid], it took 5.53 nM to reach a half-maximal effect (EC50).
For the compound `CC1(C)COC[C@H]1n1c(Cc2ccc(-c3cccc(OCc4ccc(C#N)cc4F)n3)cc2F)nc2c(F)cc(C(=O)O)cc21` [Example 440, (S)-2-(4-(6-((4-cyano-2-fluorobenzyl)oxy)pyridin-2-yl)-2-fluorobenzyl)-1-(4,4-dimethyltetrahydrofuran-3-yl)-4-fluoro-1H-benzo[d]imidazole-6-carboxylic acid], a half-maximal response (EC50) required 0.041 nM.
In the case of `CC1(C)COC[C@H]1n1c(Cc2cc(F)c(-c3ccc(F)c(OCc4ncc(C(F)(F)F)s4)n3)cc2F)nc2c(F)cc(C(=O)O)cc21` [Example 252, 2-[[2,5-difluoro-4-[5-fluoro-6-[[5-(trifluoromethyl)thiazol-2-yl]methoxy]-2-pyridyl]phenyl]methyl]-3-[(3S)-4,4-dimethyltetrahydrofuran-3-yl]-7-fluoro-benzimidazole-5-carboxylic acid], the EC50 (in general, the concentration giving half of the maximal effect) was determined as 0.075 nM.
`O=C(O)c1cc(F)c2nc(Cc3c(F)cc(-c4ccc(F)c(OCc5ncc(C(F)(F)F)s5)n4)c(F)c3F)n(C[C@@H]3CCO3)c2c1` [Example 447, (S)-4-fluoro-1-(oxetan-2-ylmethyl)-2-(2,3,6-trifluoro-4-(5-fluoro-6-((5-(trifluoromethyl)thiazol-2-yl)methoxy)pyridin-2-yl)benzyl)-1H-benzo[d]imidazole-6-carboxylic acid] showed an EC50 of 0.02 nM.
As to `O=C(O)c1ccc2nc(Cc3cc(F)c(-c4cccc(OCc5nnc(C(F)F)s5)n4)cc3F)n(C[C@@H]3CCO3)c2c1` [Example 15, (S)-2-(4-(6-((5-(difluoromethyl)-1,3,4-thiadiazol-2-yl)methoxy)pyridin-2-yl)-2,5-difluorobenzyl)-1-(oxetan-2-ylmethyl)-1H-benzo[d]imidazole-6-carboxylic acid], the EC50 was 0.96 nM.
Under `CNC(=O)c1cc(Cl)c(COc2cccc(-c3cc(F)c(Cc4nc5ccc(C(=O)O)cc5n4C[C@@H]4CCO4)cc3F)c2)cn1` [Example 444, (S)-2-((3′-((4-chloro-6-(methylcarbamoyl)pyridin-3-yl)methoxy)-2,5-difluoro-[1,1′-biphenyl]-4-yl)methyl)-1-(oxetan-2-ylmethyl)-1H-benzo[d]imidazole-6-carboxylic acid] stands 0.433 nM; under `NC(=O)c1csc(COc2cccc(-c3cc(F)c(Cc4nc5ccc(C(=O)O)cc5n4C[C@@H]4CCO4)cc3F)n2)c1` [Example 131, (S)-2-(4-(6-((4-carbamoylthiophen-2-yl)methoxy)pyridin-2-yl)-2,5-difluorobenzyl)-1-(oxetan-2-ylmethyl)-1H-benzo[d]imidazole-6-carboxylic acid], 3.38 nM; under `COc1nc(C#Cc2cnn(C)c2)ccc1COc1cccc(-c2cc(F)c(Cc3nc4ccc(C(=O)O)cc4n3C[C@@H]3CCO3)cc2F)n1` [Example 360, (S)-2-(2,5-difluoro-4-(6-((2-methoxy-6-((1-methyl-1H-pyrazol-4-yl)ethynyl)pyridin-3-yl)methoxy)pyridin-2-yl)benzyl)-1-(oxetan-2-ylmethyl)-1H-benzo[d]imidazole-6-carboxylic acid], 0.174 nM.
With `COc1nnc(COc2nc(-c3cc(F)c(Cc4nc5ccc(C(=O)O)cc5n4[C@@H]4COCC4(C)C)cc3C)ccc2F)s1` [Example 258, (S)-1-(4,4-dimethyltetrahydrofuran-3-yl)-2-(2-fluoro-4-(5-fluoro-6-((5-methoxy-1,3,4-thiadiazol-2-yl)methoxy)pyridin-2-yl)-5-methylbenzyl)-1H-benzo[d]imidazole-6-carboxylic acid] the figure was 0.483 nM; with `COCCn1c(Cc2cc(F)c(-c3cccc(OCc4ccc(C#CC(C)(C)S(C)(=O)=O)nc4)n3)cc2F)nc2ccc(C(=O)O)cc21` [Example 221, 2-[[2,5-difluoro-4-[6-[[6-(3-methyl-3-methylsulfonyl-but-1-ynyl)-3-pyridyl]methoxy]-2-pyridyl]phenyl]methyl]-3-(2-methoxyethyl)benzimidazole-5-carboxylic acid], 1070 nM; with `COc1nnc(COc2nc(-c3cc(F)c(Cc4nc5c(Cl)cc(C(=O)O)cc5n4[C@@H]4COCC4(C)C)cc3F)ccc2F)s1` [Example 367, (S)-4-chloro-2-(2,5-difluoro-4-(5-fluoro-6-((5-methoxy-1,3,4-thiadiazol-2-yl)methoxy)pyridin-2-yl)benzyl)-1-(4,4-dimethyltetrahydrofuran-3-yl)-1H-benzo[d]imidazole-6-carboxylic acid], 0.235 nM.
With `O=C(O)c1ccc2nc(Cc3cc(F)c(-c4cccc(OCc5cc[nH]n5)n4)cc3F)n(C[C@@H]3CCO3)c2c1` [Example 181, (S)-2-(4-(6-((1H-pyrazol-3-yl)methoxy)pyridin-2-yl)-2,5-difluorobenzyl)-1-(oxetan-2-ylmethyl)-1H-benzo[d]imidazole-6-carboxylic acid] the figure was 5.99 nM.
Regarding `COc1nnc(COc2cccc(-c3cc(F)c(Cc4nc5ccc(C(=O)O)cc5n4CC4(CF)CC4)c(F)c3F)n2)s1` [Example 271, 1-((1-(fluoromethyl)cyclopropyl)methyl)-2-(2,3,6-trifluoro-4-(6-((5-methoxy-1,3,4-thiadiazol-2-yl)methoxy)pyridin-2-yl)benzyl)-1H-benzo[d]imidazole-6-carboxylic acid], the EC50 stood at 0.897 nM.
With `Cn1nncc1C#Cc1ccc(COc2cccc(-c3cc(F)c(Cc4nc5ccc(C(=O)O)cc5n4C4COCC4(C)C)cc3F)n2)c(F)c1` (centres unmarked) [Example 279, 2-(2,5-difluoro-4-(6-((2-fluoro-4-((1-methyl-1H-1,2,3-triazol-5-yl)ethynyl)benzyl)oxy)pyridin-2-yl)benzyl)-1-(4,4-dimethyltetrahydrofuran-3-yl)-1H-benzo[d]imidazole-6-carboxylic acid], the EC50 was 0.955 nM. This EC50 and that of the compound before are within 1.5-fold of each other.
With `O=C(O)c1ccc2nc(Cc3cc(F)c(-c4cccc(OCc5ccn(CC(F)(F)F)n5)n4)cc3F)n(C[C@@H]3CCO3)c2c1` [Example 66, (S)-2-(2,5-difluoro-4-(6-((1-(2,2,2-trifluoroethyl)-1H-pyrazol-3-yl)methoxy)pyridin-2-yl)benzyl)-1-(oxetan-2-ylmethyl)-1H-benzo[d]imidazole-6-carboxylic acid] the figure was 6.65 nM.
The compound `O=C(O)c1ccc2nc(Cc3cc(F)c(-c4cccc(OCc5ncc(-c6cncnc6)s5)n4)cc3F)n(C[C@@H]3CCO3)c2c1` [Example 105, (S)-2-(2,5-difluoro-4-(6-((5-(pyrimidin-5-yl)thiazol-2-yl)methoxy)pyridin-2-yl)benzyl)-1-(oxetan-2-ylmethyl)-1H-benzo[d]imidazole-6-carboxylic acid] showed an EC50 of 0.14 nM.
With `CC1(C#Cc2ccc(COc3cccc(-c4cc(F)c(Cc5nc6ccc(C(=O)O)cc6n5C[C@@H]5CCO5)cc4F)n3)c(F)c2)COC1` [Example 133, (S)-2-(2,5-difluoro-4-(6-((2-fluoro-4-((3-methyloxetan-3-yl)ethynyl)benzyl)oxy)pyridin-2-yl)benzyl)-1-(oxetan-2-ylmethyl)-1H-benzo[d]imidazole-6-carboxylic acid] the figure was 0.3 nM.

The values are drawn from US20250312352A1, “GLP-1R MODULATING COMPOUNDS” (Gilead Sciences, Inc., priority 2021, published 2025).
